# Results reported in PubChem BioAssay AID504661 (Broad Institute, 2011).
# Calls of active or inactive are those of the source. How the calls were made is not given here.
# System: P. falciparum 3D7 ACP-GFP apicoplast imaging, 4 days
# Experiment: apicoplast disruption in P. falciparum parasites, late-stage follow-up, mechanism study for antimalarial project, imaging, 3D7 ACP-GFP strain (AID 504661)
# Details: stronger effect = higher value
structure (smiles),measurement,setting,value
Cc1noc(C)c1NC(=O)Nc1ccc2c(c1)C(=O)N([C@@H](C)CO)C[C@@H](C)[C@H](CN(C)S(=O)(=O)c1ccc(F)cc1)OCCCC[C@H](C)O2,apicoplast disruption,at 2000 nM,21% (inactive)
COc1ccc(COC[C@H](C)N2C[C@@H](C)[C@H](CN(C)S(=O)(=O)c3ccc(F)cc3)OCCCC[C@H](C)Oc3ccc(NC(=O)Nc4ccccc4)cc3C2=O)cc1,apicoplast disruption,at 3.2 nM,16.1% (inactive)
C[C@@H]1CN([C@@H](C)COC(=O)C(C)(C)C)C(=O)c2cc(NC(=O)Nc3ccccc3)ccc2O[C@@H](C)CCCCO[C@H]1CN(C)S(=O)(=O)c1ccc(F)cc1,apicoplast disruption,at 16 nM,17.2% (inactive)
COCCOC(=O)N(C)C[C@@H]1OCCCC[C@H](C)Oc2ccc(NC(=O)Nc3ccccc3)cc2C(=O)N([C@@H](C)CO)C[C@H]1C,apicoplast disruption,at 50000 nM,13.7% (inactive)
